Data as given in US20260137711A1, “COMBINATION THERAPY FOR CANCER” (NATIONAL UNIVERSITY OF IRELAND, GALWAY, priority 2022, published 2026).
Entries after “also recorded” stand apart in the source; their conditions may differ.

Key:
MCF10A cells [1] = test: Long-term cell proliferation assay, crystal violet staining; type: cell-based, human; conditions: 7 days
Method: (a and b) MCF10A cells were plated at equal low density and then either mock treated or treated with 31 nM BI-1347, in the presence or absence of XL413 at a doses of (a) 1.25 μM or (b) 10 μM over a 7 day period. Representative images of crystal violet-stained cells are shown alongside quantitation of crystal violet intensity normalised to the untreated control.
Briefly, MCF10A cells were mock-treated or treated in the continued presence of a dual-specificity CDK8/CDK19 inhibitor, BI-1347, in the presence or absence of XL413 at two different concentrations (1.25 μM and 10 μM) for a 7-day period. Relative cell proliferation was estimated by staining cells with crystal violet and measuring staining intensities. […] Importantly the addition of BI-1347 to XL413 caused a further reduction in cell number with staining intensity decreasing by 70% and 95% respectively.
MCF10A cells were seeded at 4,000 cells per well of a 6 well plate and after 24 hours were treated with inhibitors before being incubated for 7 days at 37° C. with 5% CO2. Media was removed from the cells which were then washed with PBS and air dried before being fixed with 100% methanol for 1 hour. Following removal of methanol the plates were air-dried, stained with crystal violet staining solution (0.2% crystal violet, 25% methanol) for 1 hour at room temperature, washed with ddH2O and air-dried. Plates were scanned using a HP Scanjet 4050, to generate images of crystal violet stained cells, and crystal violet staining intensity was acquired using the Odyssey infrared imaging system and Image Studio software (LI-COR Biosciences).

MCF10A cells [2] = test: Flow cytometry of cell cycle distribution and DNA synthesis (EdU/DAPI); type: cell-based, human; conditions: for cell cycle distribution: 24 hours
Method: (c) A typical profile obtained by flow cytometry of MCF10A cells labelled with EdU and DAPI that indicates the gating applied in order to determine the percentage of cells with sub-G1 DNA content (sub-G1), G1 cells (G1), replicating early-mid S phase cells (Early-Mid S/EdU+), replicating mid-late S phase cells (Mid-Late S/EdU+), cells with S phase DNA content but not replicating (2n<& <4n/EdU−), and cells either in G2 or mitosis (G2/M).(d-f) MCF10A cells were mock treated or treated with 10 μM XL413, in the presence or absence of increasing concentrations of the CDK8 inhibitor BI-1347, for 24 hours. (d) Cells were labelled with EdU for last 30 minutes and DNA synthesis, DNA content and cell cycle distribution were assessed by flow cytometry and analysed using the gating strategy described in above (FIG. 2c). (e) Distribution of cells in the cell cycle. (f) Fluorescence intensity, proportional to EdU incorporation, in individual S phase cells. Long and short horizontal black lines indicate the median and the interquartile range, respectively, extending from the 25th to the 75th percentile for ˜3,810 cells for each condition. Data is from a single experiment.
FIG. 3: CDK8 activity is required for efficient DNA synthesis under conditions of limited CDC7 kinase activity (a-c) MCF10A cells were mock treated or treated with 31 nM BI-1347, in the presence or absence of increasing concentrations of the CDC7 inhibitors, XL413 (a-c) and TAK-931 (d-f), for 24 hours. (a and d) Cells were labelled with EdU for last 30 minutes and DNA synthesis, DNA content and cell cycle distribution were assessed by flow cytometry and analysed using the gating strategy described in FIG. 2c.c (b and e) distribution of cells in the cell cycle. (c and f) Fluorescence intensity, proportional to EdU incorporation, in individual S phase cells. Long and short horizontal black lines indicate the median and the interquartile range, respectively, extending from the 25th to the 75th percentile for ˜4,190 cells for each condition. Data is from a single experiment.
To analyse the cell cycle and DNA synthesis, nascent DNA was labelled by incubating cells with 10 μM EdU for either 20 or 30 minutes prior to harvest, washing with PBS, and then by resuspension in PBS containing 70% EtOH for 1 hour at −20° C. After a PBS wash, incorporated EdU was labelled by incubating cells in click reaction buffer (PBS containing 10 μM 6-Carboxyfluorescine-TEG-azide, 10 mM Sodium-L-ascorbate, 2 mM Copper-II-Sulphate) for 30 minutes protected from light. Cells were washed in PBS containing 1% BSA, 5% Tween 20 and then DNA stained in PBS containing 1% BSA and 1 μg/ml DAPI. All washes involve: centrifugation at 400×g for 5 minutes, removal of supernatant from pellet, resuspension in the appropriate buffer, recentrifugation and removal of supernatant from the pellet prior to the next step.
Fluorescence intensity data for 6-Carboxyfluorescine (488_530_30 nm) and DAPI (405_450_50 nm) were acquired for 10,000 single cells on a BD FACS Canto II and analysed using FlowJo software. To further analyse fluorescence intensity, proportional to EdU incorporation, for individual cells, gates were applied on DAPI-EdU biparametric dot plots to select for EdU positive S phase cells using FlowJo. According to the required analysis these gates included either all S phase cells, or only early or late S phase cells. Fluorescence intensity (488_530_30) values per cell were exported and plotted as scatter dot plots using GraphPad prism. For comparisons of mean fluorescence intensity of a cell population across three biological repeat experiments, all fluorescence intensity values were normalised to the maximum fluorescence intensity of the untreated control sample of each respective experiment to account for absolute differences in EdU staining. […]

Cl.O=c1[nH]c([C@@H]2CCCN2)nc2c1oc1ccc(Cl)cc12 [XL413]
relative intensity reduction (crystal violet) (MCF10A cells [1]; 1.25 μM XL413 alone): ~15%
relative intensity reduction (crystal violet) (MCF10A cells [1]; 10 μM XL413 alone): 70%
rate of DNA synthesis (MCF10A cells [2]): strongly reduced; also recorded: much more profound decrease
rate of DNA synthesis of S phase cells (MCF10A cells [2]): corresponding decrease
cell cycle distribution (MCF10A cells [2]; 10 μM XL413 alone): accumulation of cells in mid to late S phase
cell cycle distribution (MCF10A cells [2]; CDC7 inhibitor alone at increasing concentrations, absence of CDK8/CDK19i): dose-dependent accumulation of mid-late S phase cells
cell cycle distribution (MCF10A cells [2]; CDC7 inhibitor at increasing concentrations together with the CDK8/CDK19 inhibitor (31 nM BI-1347), all doses tested): more pronounced accumulation of cells in mid-late S phase
